Source: article PMC13185819, “De Novo Multi‐Mechanism Antimicrobial Peptide Design via Multimodal Deep Learning” (Advanced Science, 2026)
In brackets after ≈: the same amount, converted by molar mass. Residues, ends and D or L forms follow the SMILES beside them.

Tests used:
[1] = test system: intact or abraded skin of mice; experiment: Mouse skin tolerance test; format: in vivo, C57BL/6J mice; conditions: for skin irritation or pathology at 72 h post-treatment: shaved intact and abraded skin, 10 µL of 150 mg/mL
Protocol: For the skin local safety study, the intact or abraded skin of the mice was treated once with antimicrobial peptides QLX‐3DV‐1, QLX‐3DV‐2, or water. In brief, ten‐week‐old female C57BL/6J mice (n = 8 for each group) were anesthetized using isoflurane and administered buprenorphine as an analgesic at 0.1 mg/kg intraperitoneally. After removing the back hair of the mice, the skin on the back of the mice in the scratch group was sanded with 60‐grit sandpaper until the skin oozed blood. The intact skin group received no additional treatment except shaving. 10 µL QLX‐3DV‐1 and QLX‐3DV‐2 (150 mg/mL) or water was applied uniformly over the intact or abraded skin to assess the acute dermal toxicity. Groups without any addition served as untreated controls. Weight changes were recorded over 72 h. Histopathological characteristics of treated skin detected by H&E staining on the third day.

[2] = test system: 25 strains of ESKAPE MDROs; format: cell-based; conditions: lowest value over gram-negative strains
Method in brief: (§1)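 Peptide antimicrobial activity was tested by CLSI broth microdilution. Colonies from overnight 37°C NB agar were suspended in saline to McFarland 0.5 (10^8 CFU/mL) and diluted 100-fold. The resulting 1 × 10^6 CFU/mL inoculum was mixed 1:1 with twofold serial peptide dilutions in Mueller–Hinton Broth. Three independent replicates were run.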

mice = experiment: Systemic safety, intraperitoneal injection; format: in vivo, C57BL/6J mice; conditions: for survival rate over 96 h: intraperitoneal injection, 60 mg/kg, n = 8; for hepatorenal toxicity (H&E of liver and kidney): intraperitoneal, 40 mg/kg, 12 h
Protocol: The 10‐week‐old female C57BL/6J mice were randomly divided into three groups (n = 8 for each group). […] Mouse survival was monitored for 96 h. For pathologic analysis, mouse liver and kidneys were obtained by surgery for hematoxylin‐eosin (HE) staining after treatment with 40 mg/kg QLX‐3DV‐1 and QLX‐3DV‐2 for 12 h.

[3] = test system: human red blood cells (hRBCs); experiment: Hemolysis assay; format: cell-based; conditions: human red blood cells 8% (v/v) in PBS pH 7.4, 1 h, 37°C, absorbance 570 nm; linear interpolation
Protocol: Human red blood cells (hRBCs) were purchased from Xiamen Immocell Biotechnology Co., Ltd. For the hemolysis test, fresh human red blood cells (hRBCs) were washed three times with PBS (35 mM phosphate buffer, 0.15 M NaCl, pH 7.4) by centrifugation for 5 min at 1000 × g and resuspended in PBS. Then, 50 µL peptide solutions (serial twofold dilutions in PBS) were added to 100 µL of hRBC suspension [8% (v/v) in final] in PBS and incubated for 1 h at 37°C. Samples were centrifuged at 1000 × g for 5 min, and hemoglobin release was monitored by measuring the supernatant absorbance at 570 nm in a flat‐bottom 96‐well plate (Servicebio). hRBCs in PBS or 0.1% Triton X‐100 were used as the negative and positive controls, respectively.

E.coli CMCC44102 = format: cell-based
Method in brief: as §1

E.coli 208 = format: cell-based
Method in brief: as §1

S. aureus ATCC33592 = format: cell-based
Method in brief: as §1

E. faecium 21 = format: cell-based
Method in brief: as §1

E.coli 110 = format: cell-based
Method in brief: as §1

S. aureus CICC25138 = format: cell-based
Method in brief: as §1

E. faecium 1042 = format: cell-based
Method in brief: as §1

S. aureus CMCC26003 [4] = format: cell-based
Method in brief: as §1

K. pneumoniae 7713 = format: cell-based
Method in brief: as §1

S. aureus CMCC26003 [5] = experiment: Drug resistance assay, serial passaging; format: cell-based; conditions: sub-MIC (1/2 × MIC), n = 3; for passages after which S. aureus developed resistance: passaged every 24 h, resistance = greater than fourfold MIC increase
Protocol: For comparison, the development of resistance to the clinically relevant antibiotics clindamycin (Macklin) and vancomycin (Macklin) was determined. The evolution of resistance by S. aureus CMCC26003 to antibiotics and the peptide was monitored for 20 days of serial passaging in liquid NB. Cells were passaged every 24 h. Briefly, 1 mL of bacterial suspension (1 × 10^6 CFU/mL) was incubated with antibiotics or peptide solution at half the minimal inhibitory concentration at 37°C, 200 rpm. After each incubation period, a new inoculum of 10^6 cells was prepared for inoculation of the following passage containing fresh medium and increased doses of the antimicrobial agent. During the 20 days of serial passaging, the minimum inhibitory concentration of antibiotics or peptides to each generation of cells was determined. The MIC determination method was as previously described. The development of bacterial resistance was defined as a greater than fourfold increase in MICs compared to the initial MICs.

Row | SMILES | Gross pathology findings (Number of mice) ([1]; mouse, in vivo) | Histopathological findings, Fibrosis in the dermis (Number of mice) ([1]; mouse, in vivo) | Histopathological findings, Lymphohistiocytic infiltration in the dermis (Number of mice) ([1]; mouse, in vivo) | Skin irritation, Erythema formation (Number of mice) ([1]; mouse, in vivo) | skin irritation or pathology at 72 h post-treatment [1] | MIC against gram-negative strains, as low as [2] [µg/mL] | survival rate over 96 h (mice) [%] | hepatorenal toxicity (H&E of liver and kidney) (mice) | 25% hemolytic concentration (HC25) [3] [µg/mL] | passages after which S. aureus developed resistance (S. aureus CMCC26003 [5]) [passages] | other results
1 | CC[C@H](C)[C@H](NC(=O)[C@H](CCCCN)NC(=O)[C@H](Cc1c[nH]c2ccccc12)NC(=O)[C@@H](N)CCCCN)C(=O)N[C@@H](CCCCN)C(=O)N[C@@H](Cc1c[nH]c2ccccc12)C(=O)N1CCC[C@H]1C(=O)N[C@@H](CO)C(=O)N[C@@H](CCCNC(=N)N)C(=O)N[C@@H](Cc1c[nH]c2ccccc12)C(=O)N[C@@H](Cc1ccccc1)C(=O)N[C@@H](CCCNC(=N)N)C(=O)N[C@@H](CCCCN)C(=O)N[C@@H](CC(C)C)C(N)=O [QLX-3DV-1] (H-KWKIKWPSRWFRKL-NH2) | 0 / 8 | 0 / 8 | 0 / 8 | 0 / 8 | no signs of skin irritation or pathology | 4 (≈ 2.04 µM) | 100 | no significant hepatorenal toxicity | – | – | –
2 | CC[C@H](C)[C@H](NC(=O)[C@H](CCCCN)NC(=O)[C@H](Cc1c[nH]c2ccccc12)NC(=O)[C@@H](N)CCCCN)C(=O)N[C@@H](CCCCN)C(=O)N[C@@H](Cc1c[nH]c2ccccc12)C(=O)N1CCC[C@H]1C(=O)N[C@H](C(=O)N[C@@H](CCCNC(=N)N)C(=O)N[C@@H](Cc1c[nH]c2ccccc12)C(=O)N[C@@H](Cc1ccccc1)C(=O)N[C@@H](CCCNC(=N)N)C(=O)N[C@@H](CCCCN)C(=O)N[C@@H](CC(C)C)C(N)=O)C(C)C [QLX-3DV-2] (H-KWKIKWPVRWFRKL-NH2) | 0 / 8 | 0 / 8 | 0 / 8 | 0 / 8 | no signs of skin irritation or pathology | 4 (≈ 2.03 µM) | – | no significant hepatorenal toxicity | – | – | Skin irritation, Edema formation (Number of mice) ([1]; mouse, in vivo): 0 / 8
3 | CC[C@H](C)[C@H](NC(=O)[C@H](CCSC)NC(=O)[C@H](Cc1c[nH]c2ccccc12)NC(=O)[C@@H](N)CCCCN)C(=O)N[C@@H](CCCCN)C(=O)N[C@@H](Cc1c[nH]c2ccccc12)C(=O)N1CCC[C@H]1C(=O)N[C@@H](CO)C(=O)N[C@@H](CC(N)=O)C(=O)N[C@@H](Cc1c[nH]c2ccccc12)C(=O)N[C@@H](Cc1ccccc1)C(=O)N[C@H](C(=O)N[C@@H](CCSC)C(=O)N[C@@H](CC(C)C)C(N)=O)[C@@H](C)O [QLX-227-1] (H-KWMIKWPSNWFTML-NH2) | – | – | – | – | – | – | – | – | 100.92 | – | MIC (μg/mL) E.coli CMCC44102 (E.coli CMCC44102): 32 µg/mL (≈ 17.1 µM); MIC (μg/mL) E.coli 208 (E.coli 208): 16 µg/mL (≈ 8.57 µM); MIC (μg/mL) S. aureus ATCC33592 (S. aureus ATCC33592): 64 µg/mL (≈ 34.3 µM); MIC (μg/mL) E. faecium 21 (E. faecium 21): 16 µg/mL (≈ 8.57 µM); MIC (μg/mL) E.coli 110 (E.coli 110): 32 µg/mL (≈ 17.1 µM); MIC (μg/mL) S. aureus CICC25138 (S. aureus CICC25138): 64 µg/mL (≈ 34.3 µM); MIC (μg/mL) E. faecium 1042 (E. faecium 1042): 32 µg/mL (≈ 17.1 µM); MIC (μg/mL) S. aureus CMCC26003 (S. aureus CMCC26003 [4]): 32 µg/mL (≈ 17.1 µM); MIC (μg/mL) K. pneumoniae 7713 (K. pneumoniae 7713): 64 µg/mL (≈ 34.3 µM)
4 | CC(=O)N[C@@H](CC(C)C)C(=O)N[C@@H](CCCCN)C(=O)N[C@@H](CCCNC(=N)N)C(=O)N[C@H](C(=O)N[C@@H](Cc1c[nH]c2ccccc12)C(=O)N[C@@H](CCCCN)C(=O)N[C@@H](CCCNC(=N)N)C(=O)N[C@H](C(=O)N[C@@H](Cc1ccccc1)C(=O)N[C@@H](CCCCN)C(=O)N[C@@H](CC(C)C)C(=O)N[C@@H](CC(C)C)C(=O)N[C@@H](CCCCN)C(=O)N[C@@H](CCCNC(=N)N)C(=O)N[C@@H](Cc1ccc(O)cc1)C(=O)N[C@@H](Cc1c[nH]c2ccccc12)C(=O)N[C@@H](CCCNC(=N)N)C(=O)N[C@@H](CCC(N)=O)C(=O)N[C@@H](CC(C)C)C(=O)N[C@@H](CCCCN)C(=O)N[C@@H](CCCCN)C(=O)N1CCC[C@H]1C(=O)N[C@H](C(=O)N[C@@H](CCCNC(=N)N)C(N)=O)C(C)C)C(C)C)C(C)C [SAAP-148, reference compound] (Ac-LKRVWKRVFKLLKRYWRQLKKPVR-NH2) | – | – | – | – | – | – | 50 | – | 26.89 | – | –
5 | CCC[C@@H]1C[C@@H](C(=O)N[C@@H]([C@H]2O[C@H](SC)[C@H](O)[C@@H](O)[C@H]2O)[C@H](C)Cl)N(C)C1 [clindamycin] | – | – | – | – | – | – | – | – | – | 15 | –
6 | CN[C@H](CC(C)C)C(=O)N[C@H]1C(=O)N[C@@H](CC(N)=O)C(=O)N[C@H]2C(=O)N[C@H]3C(=O)N[C@H](C(=O)N[C@H](C(=O)O)c4cc(O)cc(O)c4-c4cc3ccc4O)[C@H](O)c3ccc(c(Cl)c3)Oc3cc2cc(c3O[C@@H]2O[C@H](CO)[C@@H](O)[C@H](O)[C@H]2O[C@H]2C[C@](C)(N)[C@H](O)[C@H](C)O2)Oc2ccc(cc2Cl)[C@H]1O [vancomycin] | – | – | – | – | – | – | – | – | – | 18 | factor of decrease in susceptibility by the 20th passage (S. aureus CMCC26003 [5]; 20 passages): 64
